Experimental data taken from US8609852B2, “Thiazolyl mGluR5 antagonists and methods for their use” (Merck Sharp & Dohme Corp., priority 2004, dated 2013).

How the values were obtained:
[1] = molecular target: metabotropic glutamate receptor subtype 5 (Rattus norvegicus (Rat), UniProt P31424); experiment: [3H]-mGluR5 Antagonist Binding to Rodent Brain Membranes
Procedure: In accordance with Anderson J J, Rao S P, Rowe B, Giracello D R, Holtz G, Chapman D F, Tehrani L, Bradbury M J, Cosford N D, Varney M A, [^3H]Methoxymethyl-3-[(2-methyl-1,3-thiazol-4-yl)ethynyl]pyridine binding to metabotropic glutamate receptor subtype 5 in rodent brain: in vitro and in vivo characterization. J Pharmacol Exp Ther. 2002 December; 303 (3):1044-51, membranes were prepared (as described in Ransom R W and Stec N L (1988) Cooperative modulation of [^3H]MK-801 binding to the N-methyl-D-aspartate receptor-ion channel complex by L-glutamate, glycine, and polyamines. J Neurochem 51:830-836) using whole rat brain, or mGlu5^+/+ or mGlu5^−/− whole mouse brain.
Binding assays were performed as described in Schaffhauser H, Richards J G, Cartmell J, Chaboz S, Kemp J A, Klingelschmidt A, Messer J, Stadler H, Woltering T and Mutel V (1998) In vitro binding characteristics of a new selective group II metabotropic glutamate receptor radioligand, [^3H]LY354740, in rat brain. Mol Pharmacol 53:228-233) at room temperature with slight modifications. Briefly, membranes were thawed and washed once with assay buffer (50 mM HEPES, 2 mM MgCl2, pH 7.4), followed by centrifugation at 40,000×g for 20 min. The pellet was resuspended in assay buffer and briefly homogenized with a Polytron.
For protein linearity experiments, increasing concentrations of membrane protein were added to 96-well plates in triplicate and binding was initiated by addition of 20 nM [^3H]methoxymethyl-3-[(2-methyl-1,3-thiazol-4-yl)ethynyl]pyridine. The assay was incubated for 2 h and non-specific binding was determined using 10 μM MPEP. The binding was terminated by rapid filtration through glass-fiber filters (Unifilter-96 GF/B plate, Packard) using a 96-well plate Brandel cell harvester. Following addition of scintillant, the radioactivity was determined by liquid scintillation spectrometry. Protein measurements were performed by BioRad-DC Protein assay using bovine serum albumin as the standard.
Saturation binding experiments were performed in triplicate with increasing concentrations of [^3H]methoxymethyl-3-[(2-methyl-1,3-thiazol-4-yl)ethynyl]pyridine (1 pM to 100 nM). The time course of association was measured by the addition of 10 nM [^3H]methoxymethyl-3-[(2-methyl-1,3-thiazol-4-yl)ethynyl]pyridine to the membranes at different time points (0-240 min), followed by filtration. Dissociation was measured by the addition of 100 μM unlabeled methoxymethyl-3-[(2-methyl-1,3-thiazol-4-yl)ethynyl]pyridine at different time points to membranes previously incubated for 3 h with 10 nM [^3H]methoxymethyl-3-[(2-methyl-1,3-thiazol-4-yl)ethynyl]pyridine. For competition experiments, 100 μg membrane protein and 10 nM [^3H]methoxymethyl-3-[(2-methyl-1,3-thiazol-4-yl)ethynyl]pyridine was added to wells containing increasing concentration of the test compound in duplicate (methoxymethyl-3-[(2-methyl-1,3-thiazol-4-yl)ethynyl]pyridine or MPEP). [^3H]-3-Methoxy-5-(pyridin-2-ylethynyl)pyridine may also be used as the radioligand in the procedure described above. (See, Cosford, N. D. P.; Roppe, J.; Tehrani, L.; Seiders, T. J.; Schweiger, E. J. et al. [3H]-Methoxymethyl-MTEP and [3H]-methoxy-PEPy): Potent and selective radioligands for the Metabotropic Glutamate Subtype 5 (mGlu5) Receptor. Bioorg. Med. Chem. Lett. 2003, 13, 351-354.)

hmGluR5a receptor = hmGluR5a receptor (Homo sapiens (Human), UniProt P41594); experiment: Calcium Flux Assay; format: cell-based; conditions: hmGluR5a/L38-20 cells, glutamate-evoked [Ca2+]i
hmGluR5a receptor, sequence (P41594 other isoform, or with tags, fused parts or gaps): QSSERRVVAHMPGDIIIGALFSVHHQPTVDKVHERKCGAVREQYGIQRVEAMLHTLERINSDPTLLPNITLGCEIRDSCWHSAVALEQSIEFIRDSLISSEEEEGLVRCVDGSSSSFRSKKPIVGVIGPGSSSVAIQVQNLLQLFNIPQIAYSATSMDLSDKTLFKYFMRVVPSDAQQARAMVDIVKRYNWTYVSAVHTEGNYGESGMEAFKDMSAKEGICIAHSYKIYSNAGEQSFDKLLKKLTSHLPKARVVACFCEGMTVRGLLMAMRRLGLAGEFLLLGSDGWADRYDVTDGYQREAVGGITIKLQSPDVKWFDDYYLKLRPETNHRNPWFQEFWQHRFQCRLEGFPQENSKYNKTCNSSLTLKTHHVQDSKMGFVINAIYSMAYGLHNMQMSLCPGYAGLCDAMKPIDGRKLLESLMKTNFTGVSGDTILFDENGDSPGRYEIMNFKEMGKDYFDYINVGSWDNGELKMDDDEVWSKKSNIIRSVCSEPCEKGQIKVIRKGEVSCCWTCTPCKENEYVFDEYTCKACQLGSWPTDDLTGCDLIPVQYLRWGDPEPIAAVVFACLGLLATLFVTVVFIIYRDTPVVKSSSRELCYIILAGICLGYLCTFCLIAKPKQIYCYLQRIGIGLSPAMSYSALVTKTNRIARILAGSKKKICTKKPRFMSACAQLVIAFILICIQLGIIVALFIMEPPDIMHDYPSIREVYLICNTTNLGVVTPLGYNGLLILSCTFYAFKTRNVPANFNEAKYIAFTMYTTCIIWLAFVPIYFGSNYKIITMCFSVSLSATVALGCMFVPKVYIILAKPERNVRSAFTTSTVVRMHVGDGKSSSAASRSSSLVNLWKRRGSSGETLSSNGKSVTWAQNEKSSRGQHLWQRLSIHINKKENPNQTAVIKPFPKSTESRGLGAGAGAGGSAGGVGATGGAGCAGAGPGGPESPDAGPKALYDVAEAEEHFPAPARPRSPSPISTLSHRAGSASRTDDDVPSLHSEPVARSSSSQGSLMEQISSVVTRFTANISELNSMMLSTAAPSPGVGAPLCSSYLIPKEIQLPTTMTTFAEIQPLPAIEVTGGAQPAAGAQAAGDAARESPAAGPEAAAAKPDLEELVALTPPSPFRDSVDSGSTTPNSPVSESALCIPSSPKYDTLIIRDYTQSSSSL
Procedure: The activity of compounds was examined against the hmGluR5a receptor stably expressed in mouse fibroblast Ltk− cells (the hmGluR5a/L38-20 cell line). See generally Daggett et al., Neuropharmacology 34:871-886 (1995). Receptor activity was detected by changes in intracellular calcium ([Ca^2+]i) measured using the fluorescent calcium-sensitive dye, fura-2. hmGluR5a/L38-20 cells were plated onto 96-well plates, and loaded with 3 µM fura-2 for 1 h. Unincorporated dye was washed from the cells, and the cell plate was transferred to a custom-built 96-channel fluorimeter (SIBIA-SAIC, La Jolla, Calif.) which is integrated into a fully automated plate handling and liquid delivery system. Cells were excited at 350 and 385 nm with a xenon source combined with optical filters. Emitted light was collected from the sample through a dichroic mirror and a 510 nm interference filter and directed into a cooled CCD camera (Princeton Instruments). Image pairs were captured approximately every 1 s, and ratio images were generated after background subtraction. After a basal reading of 20 s, an EC80 concentration of glutamate ([…]) was added to the well, and the response evaluated for another 60 s. The glutamate-evoked increase in [Ca^2+]i in the presence of the screening compound was compared to the response of glutamate alone (the positive control).

metabotropic glutamate receptor subtype 5, sequence (P31424 21-1203): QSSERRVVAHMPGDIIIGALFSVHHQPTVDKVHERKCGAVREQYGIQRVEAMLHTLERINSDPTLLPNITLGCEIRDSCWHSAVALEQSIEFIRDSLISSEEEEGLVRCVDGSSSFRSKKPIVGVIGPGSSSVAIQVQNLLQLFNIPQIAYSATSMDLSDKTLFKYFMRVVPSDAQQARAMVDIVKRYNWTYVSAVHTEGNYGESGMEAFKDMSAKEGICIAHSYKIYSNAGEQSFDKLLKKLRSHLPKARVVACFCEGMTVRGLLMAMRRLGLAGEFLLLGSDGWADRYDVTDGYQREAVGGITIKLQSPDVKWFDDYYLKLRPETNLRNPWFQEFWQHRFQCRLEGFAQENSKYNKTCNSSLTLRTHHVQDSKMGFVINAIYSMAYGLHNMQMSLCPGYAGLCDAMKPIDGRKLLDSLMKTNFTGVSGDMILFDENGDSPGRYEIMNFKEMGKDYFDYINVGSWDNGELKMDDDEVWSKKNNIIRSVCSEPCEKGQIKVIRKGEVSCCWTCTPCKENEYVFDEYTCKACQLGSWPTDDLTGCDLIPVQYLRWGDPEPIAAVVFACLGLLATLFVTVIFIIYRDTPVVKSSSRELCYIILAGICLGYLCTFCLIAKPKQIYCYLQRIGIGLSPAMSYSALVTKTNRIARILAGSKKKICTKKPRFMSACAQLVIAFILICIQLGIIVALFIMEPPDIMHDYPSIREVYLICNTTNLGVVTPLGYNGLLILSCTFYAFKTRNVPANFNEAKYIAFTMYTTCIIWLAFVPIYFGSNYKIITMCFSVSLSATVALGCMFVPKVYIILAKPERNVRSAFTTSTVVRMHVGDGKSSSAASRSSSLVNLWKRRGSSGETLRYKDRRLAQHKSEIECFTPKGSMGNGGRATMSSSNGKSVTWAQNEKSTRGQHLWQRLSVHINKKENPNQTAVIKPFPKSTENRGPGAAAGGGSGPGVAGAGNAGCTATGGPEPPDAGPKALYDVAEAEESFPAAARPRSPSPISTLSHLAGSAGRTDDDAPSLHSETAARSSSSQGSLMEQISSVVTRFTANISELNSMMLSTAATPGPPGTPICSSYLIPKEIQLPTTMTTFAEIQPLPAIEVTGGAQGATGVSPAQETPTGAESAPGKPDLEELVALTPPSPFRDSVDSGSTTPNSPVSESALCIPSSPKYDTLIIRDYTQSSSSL

SMILES | Ki [1] | IC50 (hmGluR5a receptor)
Cc1nc(C#Cc2ccc(-c3cccc4ncccc34)nc2)cs1 [Example 35] | 5 nM | 17 nM
Cc1nc(C#Cc2ccc(-c3c(C)cccc3C)nc2)cs1 [Example 36] | 3 nM | 14 nM
COc1ccc(C#N)cc1-c1ccc(C#Cc2csc(C)n2)cn1 [Example 37] | 10 nM | 14 nM
Cc1ccc(C)c(-c2ccc(C#Cc3csc(C)n3)cn2)c1 [Example 38] | 8 nM | 13 nM
Cc1nc(C#Cc2ccc(-n3ccc4ccccc43)nc2)cs1 [Example 39] | 4 nM | 13 nM
Cc1nc(C#Cc2ccc(N3CCSCC3)nc2)cs1 [Example 40] | 9 nM | 12 nM
Cc1nc(C#Cc2cncc(Nc3cccnc3)c2)cs1 [Example 41] | 5 nM | 11 nM
Cc1nc(C#Cc2ccc(NC3CCC3)nc2)cs1 [Example 42] | 17 nM | 11 nM
Cc1nc(C#Cc2cncc(-c3cccc(Cl)c3)c2)cs1 [Example 43] | 0.65 nM | 11 nM
Cc1nc(C#Cc2ccc(-c3ccccc3CO)nc2)cs1 [Example 44] | 2 nM | 11 nM
Cc1nc(C#Cc2ccc(-c3ccc(F)c(F)c3)nc2)cs1 [Example 45] | 7 nM | 11 nM
Cc1nc(C#Cc2ccc(-c3ccc(F)cc3)nc2)cs1 [Example 46] | 2 nM | 11 nM
COc1ccc(C)cc1-c1ccc(C#Cc2csc(C)n2)cn1 [Example 47] | 19 nM | 11 nM
Cc1nc(C#Cc2ccc(-c3cc(C#N)ccc3F)nc2)cs1 [Example 48] | 12.5 nM | 9 nM
Cc1nc(C#Cc2ccc(-c3ccc(F)c(C)c3)nc2)cs1 [Example 49] | 5.5 nM | 9 nM
Cc1nc(C#Cc2ccc(N(C)c3ccccn3)nc2)cs1 [Example 50] | 12 nM | 9 nM
COc1cccc(-c2ccc(C#Cc3csc(C)n3)cn2)c1F [Example 51] | 9 nM | 8 nM
Cc1cccc(-c2ccc(C#Cc3csc(C)n3)cn2)c1 [Example 52] | 2 nM | 8 nM
Cc1nc(C#Cc2ccc(N3C4CCC3CC4)nc2)cs1 [Example 53] | 8 nM | 8 nM
Cc1ccc(F)c(-c2ccc(C#Cc3csc(C)n3)cn2)c1 [Example 54] | 1.5 nM | 8 nM

SMILES | Ki [1] | IC50 (hmGluR5a receptor)
CCc1ccccc1-c1ccc(C#Cc2csc(C)n2)cn1 [Example 55] | 4 nM | 7 nM
Cc1nc(C#Cc2ccc(-c3cccc(CO)c3)nc2)cs1 [Example 56] | 13 nM | 7 nM
Cc1nc(C#Cc2ccc(N3CCCCCC3)nc2)cs1 [Example 57] | 7.5 nM | 7 nM
Cc1nc(C#Cc2ccc(N3C(C)CCC3C)nc2)cs1 (centres unmarked) [Example 58] | 1.5 nM | 7 nM
CCC(C)(C)Nc1ccc(C#Cc2csc(C)n2)cn1 [Example 59] | 4 nM | 6 nM
Cc1nc(C#Cc2ccc(-c3cccc(Cl)c3C)nc2)cs1 [Example 60] | 1.5 nM | 6 nM
Cc1nc(C#Cc2ccc(N3CCCC(F)C3)nc2)cs1 (centres unmarked) [Example 61] | 12 nM | 6 nM
CC[C@H](C)Nc1ccc(C#Cc2csc(C)n2)cn1 [Example 62] | 11 nM | 6 nM
Cc1nc(C#Cc2ccc(-c3cccc(C)c3C)nc2)cs1 [Example 63] | 4 nM | 6 nM
CSc1ccccc1-c1ccc(C#Cc2csc(C)n2)cn1 [Example 64] | 0.8 nM | 6 nM
Cc1nc(C#Cc2cncc(-c3ccc(CO)cc3)c2)cs1 [Example 65] | 8 nM | 6 nM
CCC(CC)Nc1ccc(C#Cc2csc(C)n2)cn1 [Example 66] | 9 nM | 5 nM
Cc1nc(C#Cc2cncc(CCc3ccccc3)c2)cs1 [Example 67] | 7 nM | 5 nM
CC[C@@H](C)Nc1ccc(C#Cc2csc(C)n2)cn1 [Example 68] | 7 nM | 5 nM
Cc1nc(C#Cc2ccc(N3CCCC3)nc2)cs1 [Example 69] | 14 nM | 5 nM
Cc1nc(C#Cc2ccc(-c3cccc(C#N)c3)nc2)cs1 [Example 70] | 5 nM | 5 nM
COCc1ccccc1-c1ccc(C#Cc2csc(C)n2)cn1 [Example 71] | 4.5 nM | 5 nM
Cc1nc(C#Cc2ccc(NC(C)(C)C)nc2)cs1 [Example 72] | 7 nM | 5 nM
Cc1nc(C#Cc2ccc(C3CC4CCC3C4)nc2)cs1 (centres unmarked) [Example 73] | 2 nM | 4 nM
Cc1nc(C#Cc2ccc(N3CC4CCC3C4)nc2)cs1 (centres unmarked) [Example 74] | 7.5 nM | 4 nM

SMILES | Ki [1] | IC50 (hmGluR5a receptor)
Cc1nc(C#Cc2ccc(C3CCCC3)nc2)cs1 [Example 75] | 4 nM | 4 nM
Cc1nc(C#Cc2cncc(C3CC3)c2)cs1 [Example 76] | 3 nM | 3.5 nM
Cc1nc(C#Cc2ccc(-c3cccc(C(F)(F)F)c3)nc2)cs1 [Example 77] | 13 nM | 3 nM
C=Cc1cncc(C#Cc2csc(C)n2)c1 [Example 78] | 1.4 nM | 3 nM
Cc1nc(C#Cc2ccc(Oc3ccccc3)nc2)cs1 [Example 79] | 16 nM | 3 nM
Cc1cncc(C#Cc2csc(C)n2)c1 [Example 80] | 3 nM | 3 nM
Cc1nc(C#Cc2ccc(N3CCC(C)CC3)nc2)cs1 [Example 81] | 6 nM | 3 nM
Cc1nc(C#Cc2cncc(N(C)c3cccnc3)c2)cs1 [Example 82] | 2 nM | 3 nM
CCC(C)Sc1ccc(C#Cc2csc(C)n2)cn1 (centres unmarked) [Example 83] | 12 nM | 2 nM
Cc1nc(C#Cc2cncc(-c3ccccc3CO)c2)cs1 [Example 84] | 7 nM | 2 nM
Cc1nc(C#Cc2cncc(-c3cccc(C#N)c3)c2)cs1 [Example 85] | 1 nM | 2 nM
CCCN(C)c1ccc(C#Cc2csc(C)n2)cn1 [Example 86] | 7 nM | 2 nM
Cc1nc(C#Cc2ccc(N3CCC(F)CC3)nc2)cs1 [Example 88] | 4 nM | 2 nM
CCOc1ccccc1-c1ccc(C#Cc2csc(C)n2)cn1 [Example 89] | 2 nM | 1.6 nM
Cc1nc(C#Cc2cncc(Cl)c2)cs1 [Example 90] | 4 nM | 1.5 nM
Cc1nc(C#Cc2cncc(Oc3cccnc3)c2)cs1 [Example 91] | 1 nM | 1 nM
Cc1nc(C#Cc2cnc(N3CCCC(CO)C3)nc2)cs1 (centres unmarked) [Example 92] | 7 nM | 12 nM
Cc1nc(C#Cc2cnc(N3CCCCCC3)nc2)cs1 [Example 93] | 3 nM | 11 nM
